Laboratory results published in patent US4740518A, “4H-benzo(4,5)cyclohepta(1,2-B)thiophene derivatives” (Sandoz Ltd., priority 1983, dated 1988).

What was measured:
[1] = Adjuvant arthritis test in the rat (Test A); assay type: in vivo; details: for ED50: Rattus norvegicus
Protocol: For this test adjuvant arthritis is induced according to the method of Pearson and Wood, "Arthr. Rheum."2, 440 (1959). Compounds of the invention, e.g. compounds of formula I, are active in this test against developing and established arthritis at dosages of from 5 to 30 mg/kg/day.

[2] = Yeast-induced fever test in the rat (Test B); assay type: in vivo, male rats (Sprague-Dawley); details: for ED50: Rattus norvegicus, read-out: Yeast fever ED50
Protocol: For this test male rats (Sprague-Dawley) of 130-180 g are fasted overnight. Body temperature is measured the following morning using a thermistor rectal probe connected to a telethermometer. 1 ml/100 g body weight of a 15% suspension of dried baker's yeast in saline is then injected s.c.. Body temperature is measured 2 hours later and this value taken as the initial temperature. 6 hours after yeast injection the test animals receive an oral dosage of the test substance suspended in 0.5% tragacanth or tragacanth alone (control). Body temperature is again measured after a further 2 hours.
Increase in temperature for each rat is calculated and expressed as a % of average increase determined in the control group (ca. 2.3° C. above normal). The ED50, estimated by regression analysis, is taken as the dosage at which increase in rectal temperature is 50% of that in the control group. Compounds of the invention, e.g. compounds of formula I, are active in this test at dosages of from 15 to 60 mg/kg.

[3] = Arthritis pain test in the rat (Test C); assay type: in vivo, male rats (OFA); details: for ED50: Rattus norvegicus, read-out: Arthritis pain ED50
Protocol: For this test male rats (OFA) of 110-120 g are treated with 0.1 ml of a Mycobacterium butyricum suspension in paraffin oil (0.6 mg Mycobact./0.1 ml oil) injected i.c. into the tail root. Marked arthritis in the hind-paws develops ca. 12 days after treatment. 30 mins. before administration of test-substance, control measurement is performed by flexing the foot joint of the right or left hind-paw using a Statham transducer until vocalisation occurs. […] Test substance is administered orally and the flexion procedure repeated 1,3 and 5 hours subsequently. The pressure at which vocalisation occurs is noted, the value recorded for each rat at each interval being the average value of three successive measurements. Animals in which the vocalisation threshold is doubled with respect to the control measurement are considered to be protected. The ED50 estimated for each post-treatment time according to the Probit method is taken as the dosage at which 50% of animals are protected. Compounds of the invention, e.g. compounds of formula I, are active in this test at dosages of from 3.2 to 100 mg/kg.

## COC1=Cc2ccccc2C(=CC(=O)O)c2ccsc21 [A, [10-methoxy-4H-benzo[4,5]cyclohepta[1,2-b]thiophen-4-ylidene]-acetic acid]
[1]; Test A, developing arthritis, compound A as cis/trans (Z,E) isomer mixture, read-out: Developing arthritis ED50
  ED50: 15 mg/kg
[1]; Test A, developing arthritis, using cis (Z) isomer, read-out: Developing arthritis ED50
  ED50: 8 mg/kg
[1]; Test A, established arthritis, compound A as cis/trans (Z,E) isomer mixture, read-out: Established arthritis ED50
  ED50: 15 mg/kg
[1]; Test A, established arthritis, using cis (Z) isomer, read-out: Established arthritis ED50
  ED50: 16 mg/kg
[1]; pure cis-isomer
  indicated daily dosage relative to acetylsalicylic acid, anti-inflammatory therapy: 1/15
[2]; Test B, oral, temperature 2 h after dosing, compound A as cis (Z) isomer
  ED50: 22 mg/kg
[2]; cis-isomer
  indicated daily dosage relative to acetylsalicylic acid, anti-pyretic therapy: 1/7
[3]; Test C, oral, 50% of animals protected, compound A as cis (Z) isomer
  ED50: 7 mg/kg
[3]; cis-isomer
  indicated daily dosage relative to acetylsalicylic acid, analgesic therapy: 1/12

## CC(=O)Oc1ccccc1C(=O)O [B, acetylsalicyclic acid, reference compound]
[1]; read-out: Developing arthritis ED50
  ED50: 140 mg/kg
[1]; read-out: Established arthritis ED50
  ED50: 240 mg/kg
[2]; po, 2 h
  ED50: 161 mg/kg
[3]; po
  ED50: 90 mg/kg
